This passage reports IC50 results from patent US9340590B2 (priority 2011, dated 2016).

Holding throughout (assay): cell-based
In one assay the target is hNav1.7 (Homo sapiens, UniProt Q15858). The format is cell-based.
The target in the next assay is hNav1.5 (Homo sapiens, UniProt Q14524).
A further assay addresses hNav1.3 (Homo sapiens, UniProt Q9NY46). The note with it: IonWorks Quattro, read-out: IWQ Use Nav1.3. On the technique in general: In patch-clamp work, channel activity is measured electrically.
Setting [1] is: IonWorks Quattro, Use, read-out: IWQ Use Nav1.7.
Setting [2] is: IonWorks Quattro, Use, read-out: IWQ Use Nav1.5.

Molecules are shown by their SMILES. Read-outs that look alike come from different tables or passages of the source. Positions of bridges follow the written chain, without caps; N, C: chain ends. Non-standard residues stand in square brackets, D forms with d. Residues, ends and D or L forms follow the SMILES beside them. 1Nal = N[C@@H](Cc1cccc2ccccc12)C(=O)O

Sequence of hNav1.5 (Q14524 whole entry, looked up): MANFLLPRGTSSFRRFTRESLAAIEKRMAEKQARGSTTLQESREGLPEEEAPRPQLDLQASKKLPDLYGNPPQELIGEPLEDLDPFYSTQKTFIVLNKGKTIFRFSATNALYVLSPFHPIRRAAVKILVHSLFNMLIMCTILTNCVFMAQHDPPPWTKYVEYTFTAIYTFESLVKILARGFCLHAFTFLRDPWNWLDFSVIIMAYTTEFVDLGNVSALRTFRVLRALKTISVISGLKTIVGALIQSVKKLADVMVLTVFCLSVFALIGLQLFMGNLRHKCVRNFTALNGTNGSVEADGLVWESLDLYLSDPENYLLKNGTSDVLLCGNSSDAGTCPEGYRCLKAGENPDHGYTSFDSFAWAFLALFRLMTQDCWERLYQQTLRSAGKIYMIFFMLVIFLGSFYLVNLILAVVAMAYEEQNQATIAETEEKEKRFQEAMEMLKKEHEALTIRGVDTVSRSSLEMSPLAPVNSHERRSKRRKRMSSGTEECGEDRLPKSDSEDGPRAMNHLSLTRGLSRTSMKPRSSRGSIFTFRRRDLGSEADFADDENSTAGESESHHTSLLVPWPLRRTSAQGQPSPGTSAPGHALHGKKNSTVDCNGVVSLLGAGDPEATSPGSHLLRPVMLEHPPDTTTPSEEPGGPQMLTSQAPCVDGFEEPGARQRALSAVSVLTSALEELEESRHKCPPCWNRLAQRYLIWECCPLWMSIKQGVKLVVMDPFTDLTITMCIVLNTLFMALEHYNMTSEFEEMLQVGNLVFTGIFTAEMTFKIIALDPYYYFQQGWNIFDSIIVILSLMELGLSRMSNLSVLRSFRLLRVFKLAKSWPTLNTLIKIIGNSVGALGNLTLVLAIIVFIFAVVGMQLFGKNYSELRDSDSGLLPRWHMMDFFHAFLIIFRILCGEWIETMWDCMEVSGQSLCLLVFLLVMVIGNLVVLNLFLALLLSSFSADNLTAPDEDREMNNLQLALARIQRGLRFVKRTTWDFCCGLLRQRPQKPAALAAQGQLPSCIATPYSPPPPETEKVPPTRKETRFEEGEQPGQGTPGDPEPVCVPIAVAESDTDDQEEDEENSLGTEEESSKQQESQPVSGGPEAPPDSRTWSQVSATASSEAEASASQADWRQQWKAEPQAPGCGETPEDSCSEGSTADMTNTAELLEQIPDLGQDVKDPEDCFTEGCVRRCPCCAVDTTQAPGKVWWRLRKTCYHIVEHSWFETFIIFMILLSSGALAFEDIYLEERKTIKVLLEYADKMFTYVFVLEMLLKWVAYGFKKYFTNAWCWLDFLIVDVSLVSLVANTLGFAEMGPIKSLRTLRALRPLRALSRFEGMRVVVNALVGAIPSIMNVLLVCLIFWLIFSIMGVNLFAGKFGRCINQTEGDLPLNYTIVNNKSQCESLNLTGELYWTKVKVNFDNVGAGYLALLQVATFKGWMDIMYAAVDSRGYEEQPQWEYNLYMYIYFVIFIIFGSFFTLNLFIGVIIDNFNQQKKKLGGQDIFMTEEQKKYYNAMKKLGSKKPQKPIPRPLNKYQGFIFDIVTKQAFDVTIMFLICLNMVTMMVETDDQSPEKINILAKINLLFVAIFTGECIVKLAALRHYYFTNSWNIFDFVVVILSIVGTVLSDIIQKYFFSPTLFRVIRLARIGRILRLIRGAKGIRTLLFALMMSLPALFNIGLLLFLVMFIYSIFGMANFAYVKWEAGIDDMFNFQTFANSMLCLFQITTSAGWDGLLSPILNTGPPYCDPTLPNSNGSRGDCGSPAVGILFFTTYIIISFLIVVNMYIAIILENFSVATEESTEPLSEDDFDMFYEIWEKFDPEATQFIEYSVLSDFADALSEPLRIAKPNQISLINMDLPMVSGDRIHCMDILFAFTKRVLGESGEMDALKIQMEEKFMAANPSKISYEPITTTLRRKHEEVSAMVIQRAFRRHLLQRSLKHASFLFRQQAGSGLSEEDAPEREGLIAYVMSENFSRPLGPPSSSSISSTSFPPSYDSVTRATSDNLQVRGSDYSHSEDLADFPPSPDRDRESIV
Sequence of hNav1.7 (Q15858 whole entry, looked up): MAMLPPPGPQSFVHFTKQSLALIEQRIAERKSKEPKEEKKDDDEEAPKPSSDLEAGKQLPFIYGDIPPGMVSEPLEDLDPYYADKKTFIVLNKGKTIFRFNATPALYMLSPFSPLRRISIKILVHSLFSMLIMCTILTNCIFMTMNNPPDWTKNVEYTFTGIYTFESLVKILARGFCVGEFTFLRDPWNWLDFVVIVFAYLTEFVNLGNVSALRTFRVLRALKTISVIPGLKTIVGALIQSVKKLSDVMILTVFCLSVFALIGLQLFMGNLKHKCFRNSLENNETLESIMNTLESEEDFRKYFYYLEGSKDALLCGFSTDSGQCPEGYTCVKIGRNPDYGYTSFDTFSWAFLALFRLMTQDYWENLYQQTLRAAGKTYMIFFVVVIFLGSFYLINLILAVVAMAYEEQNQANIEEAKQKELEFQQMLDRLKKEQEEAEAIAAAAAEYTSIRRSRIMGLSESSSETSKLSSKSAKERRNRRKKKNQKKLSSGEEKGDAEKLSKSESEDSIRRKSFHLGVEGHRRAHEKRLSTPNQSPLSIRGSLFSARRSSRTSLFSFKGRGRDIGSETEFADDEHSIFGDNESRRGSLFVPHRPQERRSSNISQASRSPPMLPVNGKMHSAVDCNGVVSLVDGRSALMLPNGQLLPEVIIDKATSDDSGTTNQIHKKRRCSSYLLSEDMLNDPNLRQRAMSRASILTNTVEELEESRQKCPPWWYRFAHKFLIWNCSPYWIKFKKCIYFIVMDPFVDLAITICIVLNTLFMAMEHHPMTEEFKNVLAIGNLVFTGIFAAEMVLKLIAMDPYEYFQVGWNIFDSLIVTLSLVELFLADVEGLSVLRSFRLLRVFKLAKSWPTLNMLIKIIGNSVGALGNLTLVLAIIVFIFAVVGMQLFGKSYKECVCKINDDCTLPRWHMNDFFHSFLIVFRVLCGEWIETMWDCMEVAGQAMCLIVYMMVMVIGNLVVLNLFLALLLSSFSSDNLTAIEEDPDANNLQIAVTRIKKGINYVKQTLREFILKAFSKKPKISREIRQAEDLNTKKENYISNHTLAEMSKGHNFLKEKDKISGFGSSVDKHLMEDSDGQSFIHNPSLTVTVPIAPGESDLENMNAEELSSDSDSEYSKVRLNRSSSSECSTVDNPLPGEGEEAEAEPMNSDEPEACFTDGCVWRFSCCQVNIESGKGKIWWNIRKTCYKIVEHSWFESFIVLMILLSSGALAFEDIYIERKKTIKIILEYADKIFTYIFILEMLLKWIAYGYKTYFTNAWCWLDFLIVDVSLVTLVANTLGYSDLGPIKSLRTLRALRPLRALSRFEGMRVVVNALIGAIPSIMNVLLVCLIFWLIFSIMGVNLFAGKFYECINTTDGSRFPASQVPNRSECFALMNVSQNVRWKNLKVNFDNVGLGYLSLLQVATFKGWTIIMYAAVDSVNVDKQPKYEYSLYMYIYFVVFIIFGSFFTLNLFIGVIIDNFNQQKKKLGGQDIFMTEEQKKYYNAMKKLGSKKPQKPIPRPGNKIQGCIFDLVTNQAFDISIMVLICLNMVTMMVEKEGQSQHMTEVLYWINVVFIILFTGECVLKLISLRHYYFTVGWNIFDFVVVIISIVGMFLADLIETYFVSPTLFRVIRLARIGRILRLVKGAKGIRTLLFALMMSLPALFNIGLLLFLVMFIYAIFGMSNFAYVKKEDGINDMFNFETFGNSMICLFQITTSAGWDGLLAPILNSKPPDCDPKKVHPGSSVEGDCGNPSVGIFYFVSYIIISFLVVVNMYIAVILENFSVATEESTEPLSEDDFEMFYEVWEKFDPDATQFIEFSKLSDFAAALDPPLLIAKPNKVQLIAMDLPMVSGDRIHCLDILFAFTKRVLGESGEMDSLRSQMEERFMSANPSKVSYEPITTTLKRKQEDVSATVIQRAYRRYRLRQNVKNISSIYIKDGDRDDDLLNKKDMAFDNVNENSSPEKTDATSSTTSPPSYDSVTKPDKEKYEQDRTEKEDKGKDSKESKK

With `CC[C@H](C)[C@@H]1NC(=O)[C@@H]2CSSC[C@@H]3NC(=O)[C@H](C(C)C)NC(=O)[C@H](CC(C)C)NC(=O)[C@H](CC(N)=O)NC(=O)[C@@H]4CCCN4C(=O)[C@H](CCCNC(=N)N)NC(=O)[C@H](CSSC[C@H](NC(=O)[C@@H](N)CC(=O)O)C(=O)N[C@@H](CC(C)C)C(=O)NCC(=O)N[C@@H](Cc4ccccc4)C(=O)N[C@@H](CCSC)C(=O)N[C@@H](CCCNC(=N)N)C(=O)N[C@@H](CCCCN)C(=O)N2)NC(=O)[C@H](CSSC[C@@H](C(=O)N[C@@H](CCCCN)C(=O)N[C@@H](Cc2ccc(O)cc2)C(=O)N[C@H](C(=O)N[C@@H](Cc2ccccc2)C(N)=O)C(C)C)NC(=O)[C@H](Cc2c[nH]c4ccccc24)NC(=O)[C@H](CCCCN)NC(=O)[C@H](Cc2c[nH]cn2)NC(=O)[C@H]([C@@H](C)O)NC(=O)[C@H](CCCNC(=N)N)NC(=O)[C@H](CO)NC3=O)NC(=O)[C@H](CCCCN)NC(=O)[C@H](CC(=O)O)NC(=O)[C@H](CC(N)=O)NC(=O)[C@H](Cc2cccc3ccccc23)NC(=O)[C@@H]2CCCN2C1=O` [compound 162] (H-DCLGFMRKCIP[1Nal]NDKCCRPNLVCSRTHKWCKYVF-NH2; disulfide 2-17, 9-23, 16-30), the IC50 amounted to 60 nM at hNav1.7 (setting [1]), 9.88 µM on hNav1.5 (setting [2]) and 40 nM on hNav1.3 (Use).
For `CC[C@H](C)[C@@H]1NC(=O)[C@@H]2CSSC[C@@H]3NC(=O)[C@H](C(C)C)NC(=O)[C@H](CC(C)C)NC(=O)[C@H](CC(N)=O)NC(=O)[C@@H]4CCCN4C(=O)[C@H](CCCNC(=N)N)NC(=O)[C@H](CSSC[C@H](NC(=O)[C@@H](N)CC(=O)O)C(=O)N[C@@H](CC(C)C)C(=O)NCC(=O)N[C@@H](Cc4ccccc4)C(=O)N[C@@H](CCSC)C(=O)N[C@@H](CCCNC(=N)N)C(=O)N[C@@H](CCCCN)C(=O)N2)NC(=O)[C@H](CSSC[C@@H](C(=O)N[C@@H](CCCCN)C(=O)N[C@@H](Cc2ccc(O)cc2)C(=O)N[C@H](C(=O)N[C@@H](Cc2ccccc2)C(N)=O)C(C)C)NC(=O)[C@H](Cc2c[nH]c4ccccc24)NC(=O)[C@H](CCCCN)NC(=O)[C@H](Cc2c[nH]cn2)NC(=O)[C@H]([C@@H](C)O)NC(=O)[C@H](CCCNC(=N)N)NC(=O)[C@H](CO)NC3=O)NC(=O)[C@H](CCCCN)NC(=O)[C@H](CC(=O)O)NC(=O)[C@H](Cc2cccc3ccccc23)NC(=O)[C@H](CC(=O)O)NC(=O)[C@@H]2CCCN2C1=O` [compound 163] (H-DCLGFMRKCIPD[1Nal]DKCCRPNLVCSRTHKWCKYVF-NH2; disulfide 2-17, 9-23, 16-30), in that order: 110 nM, 8.27 µM and 90 nM.
`CC[C@H](C)[C@@H]1NC(=O)[C@@H]2CSSC[C@@H]3NC(=O)[C@H](C(C)C)NC(=O)[C@H](Cc4cccc5ccccc45)NC(=O)[C@H](CC(N)=O)NC(=O)[C@@H]4CCCN4C(=O)[C@H](CCCNC(=N)N)NC(=O)[C@H](CSSC[C@H](NC(=O)[C@@H](N)CC(=O)O)C(=O)N[C@@H](CC(C)C)C(=O)NCC(=O)N[C@@H](Cc4ccccc4)C(=O)N[C@@H](CCSC)C(=O)N[C@@H](CCCNC(=N)N)C(=O)N[C@@H](CCCCN)C(=O)N2)NC(=O)[C@H](CSSC[C@@H](C(=O)N[C@@H](CCCCN)C(=O)N[C@@H](Cc2ccc(O)cc2)C(=O)N[C@H](C(=O)N[C@@H](Cc2ccccc2)C(N)=O)C(C)C)NC(=O)[C@H](Cc2c[nH]c4ccccc24)NC(=O)[C@H](CCCCN)NC(=O)[C@H](Cc2c[nH]cn2)NC(=O)[C@H]([C@@H](C)O)NC(=O)[C@H](CCCNC(=N)N)NC(=O)[C@H](CO)NC3=O)NC(=O)[C@H](CCCCN)NC(=O)[C@H](CC(=O)O)NC(=O)[C@H](CC(N)=O)NC(=O)[C@H](CC(=O)O)NC(=O)[C@@H]2CCCN2C1=O` [compound 165] (H-DCLGFMRKCIPDNDKCCRPN[1Nal]VCSRTHKWCKYVF-NH2; disulfide 2-17, 9-23, 16-30): the IC50 is 80 nM on hNav1.7, 10.6 µM at hNav1.5 (setting [2]) and 90 nM on hNav1.3 (Use).
Regarding `CC[C@H](C)[C@@H]1NC(=O)[C@@H]2CSSC[C@@H]3NC(=O)[C@H](C(C)C)NC(=O)[C@H](CC(C)C)NC(=O)[C@H](CC(N)=O)NC(=O)[C@@H]4CCCN4C(=O)[C@H](CCCNC(=N)N)NC(=O)[C@H](CSSC[C@H](NC(=O)[C@@H](N)CC(=O)O)C(=O)N[C@@H](CC(C)C)C(=O)NCC(=O)N[C@@H](Cc4ccccc4)C(=O)N[C@@H](CCSC)C(=O)N[C@@H](CCCNC(=N)N)C(=O)N[C@@H](CCCCN)C(=O)N2)NC(=O)[C@H](CSSC[C@@H](C(=O)N[C@@H](CCCCN)C(=O)N[C@@H](Cc2ccc(O)cc2)C(=O)N[C@H](C(=O)N[C@@H](Cc2ccccc2)C(N)=O)C(C)C)NC(=O)[C@H](Cc2c[nH]c4ccccc24)NC(=O)[C@H](CCCCN)NC(=O)[C@H](Cc2cccc4ccccc24)NC(=O)[C@H]([C@@H](C)O)NC(=O)[C@H](CCCNC(=N)N)NC(=O)[C@H](CO)NC3=O)NC(=O)[C@H](CCCCN)NC(=O)[C@H](CC(=O)O)NC(=O)[C@H](CC(N)=O)NC(=O)[C@H](CC(=O)O)NC(=O)[C@@H]2CCCN2C1=O` [compound 166] (H-DCLGFMRKCIPDNDKCCRPNLVCSRT[1Nal]KWCKYVF-NH2; disulfide 2-17, 9-23, 16-30), the IC50 at hNav1.7 (Table 23, IonWorks Quattro, use, […], read-out: IWQ Use Nav1.7) is 300 nM; on hNav1.5 (Table 23, IonWorks Quattro, use, […], read-out: IWQ Use Nav1.5) it was 0.88 µM; on hNav1.3 (Table 23, use, […]) it was 430 nM.
On to `CC[C@H](C)[C@@H]1NC(=O)[C@@H]2CSSC[C@@H]3NC(=O)[C@H](C(C)C)NC(=O)[C@H](CC(C)C)NC(=O)[C@H](CC(N)=O)NC(=O)[C@@H]4CCCN4C(=O)[C@H](CCCNC(=N)N)NC(=O)[C@H](CSSC[C@H](NC(=O)[C@@H](N)CC(=O)O)C(=O)N[C@@H](CC(C)C)C(=O)NCC(=O)N[C@@H](Cc4ccccc4)C(=O)N[C@@H](CCSC)C(=O)N[C@@H](CCCNC(=N)N)C(=O)N[C@@H](CCCCN)C(=O)N2)NC(=O)[C@H](CSSC[C@@H](C(=O)N[C@@H](CCCCN)C(=O)N[C@@H](Cc2ccc(O)cc2)C(=O)N[C@@H](Cc2cccc4ccccc24)C(=O)N[C@@H](Cc2ccccc2)C(N)=O)NC(=O)[C@H](Cc2c[nH]c4ccccc24)NC(=O)[C@H](CCCCN)NC(=O)[C@H](Cc2cnc[nH]2)NC(=O)[C@H]([C@@H](C)O)NC(=O)[C@H](CCCNC(=N)N)NC(=O)[C@H](CO)NC3=O)NC(=O)[C@H](CCCCN)NC(=O)[C@H](CC(=O)O)NC(=O)[C@H](CC(N)=O)NC(=O)[C@H](CC(=O)O)NC(=O)[C@@H]2CCCN2C1=O` [compound 168] (H-DCLGFMRKCIPDNDKCCRPNLVCSRTHKWCKY[1Nal]F-NH2; disulfide 2-17, 9-23, 16-30), for which the IC50 was 60 nM at hNav1.7 (Table 26, IonWorks Quattro, use, […], read-out: IWQ Use Nav1.7); 15.7 µM against hNav1.5 (IWQ Use Nav1.5 (μM)); 20 nM at hNav1.3 (Table 26, use, […]).
